According to paper PMC10603992, “Antimicrobial and Adjuvant Potencies of Di-n-alkyl Substituted Diazalariat Ethers” (Antibiotics, 2023):
Values after ≈ are worked out from the molar mass of the structure shown. Read-outs that look alike come from different tables or passages of the source.

Key:
[1] = system: Tet^R E. coli; assay: MIC against Tet^R E. coli; assay type: cell-based; details: for MIC: Escherichia coli, read-out: MIC Tet^R E. coli
[2] = system: S. aureus; assay: Membrane depolarization by DiBAC4(3) fluorescence; assay type: cell-based, Staphylococcus aureus; details: compound at ½ MIC
Method: Disruption of ion homeostasis by 1–6 should be apparent in the associated membrane depolarization. […] The dye is readily absorbed by bacteria owing to the negative internal potential. Disruption of ion homeostasis will affect both proton and potassium cation regulation. The internalized, self-quenched dye will be released and increased fluorescence will be observed.
Two types of experiments were performed to assess membrane depolarization. […] If ion homeostasis is affected by the presence of any of these compounds, the fluorescent response should increase as the lariat ether concentration increased.
A second series of experiments was performed to determine the relationship of disrupted ion homeostasis, as reflected in membrane depolarization with cellular vitality (Figure 17). […] Alamar blue (see above) was used to determine cell viability. No depolarization was apparent in the S. aureus control in the absence of a lariat ether or lariat ether derivative. Depolarization was greatest for C10LE•MeI (3). […] We note that the MIC values for S. aureus observed for 2, 3, 5, and 6 were similar.
The membrane depolarization study was conducted as described in [48].

[3] = biological target: T1, NorA efflux pumps in S. aureus 1199B (Staphylococcus aureus, UniProt P0A0J7); assay: Efflux pump inhibition (EthBr accumulation); assay type: cell-based; set-up: Efflux pump inhibition (increase in EthBr fluorescence): dose or concentration left out as unconfirmed
T1 construct: Increase in EthBr fluorescence observed by its accumulation in S. aureus 1199B cytosol; endogenous in cells; host or cells: Staphylococcus aureus 1199B (whole bacteria)
T1 sequence (P0A0J7 whole entry): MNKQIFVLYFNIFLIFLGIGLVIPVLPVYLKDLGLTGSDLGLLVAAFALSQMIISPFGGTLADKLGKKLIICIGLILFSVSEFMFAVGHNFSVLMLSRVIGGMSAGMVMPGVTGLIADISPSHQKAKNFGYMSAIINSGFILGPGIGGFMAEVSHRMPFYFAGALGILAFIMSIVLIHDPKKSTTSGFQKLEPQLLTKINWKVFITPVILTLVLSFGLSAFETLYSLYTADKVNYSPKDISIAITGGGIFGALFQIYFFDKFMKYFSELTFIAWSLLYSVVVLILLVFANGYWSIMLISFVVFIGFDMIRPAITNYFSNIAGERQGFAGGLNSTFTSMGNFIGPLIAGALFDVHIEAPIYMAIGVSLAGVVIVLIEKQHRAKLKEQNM
Source text: An important reason for the choice of S. aureus 1199B for study is that its resistance to norfloxacin is known to result from the presence of the Nor A efflux pump. Efflux pumps require regulated ion balance to function so that exogeneous substances such as antibacterials can effectively be ejected. Ethidium bromide (EthBr) can penetrate bacteria and is detectable by its fluorescence. To the extent that ion homeostasis is disrupted, ion balance is deregulated, and efflux pump function is compromised or inhibited.
Experimental details have been reported in [44].

[4] = system: S. aureus 1199B; assay: MIC against S. aureus 1199B; assay type: cell-based, Staphylococcus aureus
[5] = system: S. aureus; assay: MIC against S. aureus under various pH and media conditions; assay type: cell-based, Staphylococcus aureus; details: for Change in MIC as the pH was increased from 6.4 to 8.4: S. aureus, Mueller Hinton medium
[6] = system: S. aureus 1199B; assay: Growth curves; assay type: cell-based, Staphylococcus aureus; details: ½ MIC, OD600 over 24 h
Method: In the studies above, 1–6 were administered at ½ MIC concentrations. At these concentrations, no toxic effect of the compound on cells was anticipated. In order to confirm the effect of compound concentration on S. aureus viability, growth curves were conducted for each compound. In all cases, S. aureus alone was used as control. For the three C10LE compounds (1–3), 32 µM and 64 µM concentrations of norfloxacin were added to the norfloxacin-resistant S. aureus strain as an additional control. The concentration ranges for each of compounds 1–6 varied with their potencies.
The determination of growth curves was performed against S. aureus 1199B, which is norfloxacin resistant at 32 µM. Norfloxacin was used at 64 µM as a control. The compounds tested were 1–6, C10LE and C12LE and their hydrochlorides and methiodides. S. aureus 1199B was cultured overnight from a single CFU and reduced to OD600 = 0.55 before use. Samples were prepared in LB media to which was added either the norfloxacin control or the combination of norfloxacin and one of the compounds C10LE (1), C10LE•2HCl (2), C10LE•2MeI (3), C12LE (4), C12LE•2HCl (5), or C12LE•2MeI (6). Dimethylsulfoxide (DMSO) was used to solubilize the lariat ether derivative, when necessary, but its concentration was never allowed to exceed 0.5% (v/v) in all experiments. […] The absorbance of each sample (600 nm) was recorded every quarter hour for 24 h.

[7] = system: DH5α E. coli; assay: MIC against DH5α E. coli; assay type: cell-based; details: Escherichia coli, no additional antimicrobial; MICs in table limited to […]; read-out: Minimum inhibitory concentration against DH5α E. coli
[8] = Dynamic light scattering of C12LE aggregation; assay type: physicochemical; details: water, in the presence of the antimicrobial or C12LE alone
Method: It is known that dialkyldiazacrowns form stable aggregates in aqueous solution [57, 62]. It was hypothesized that complexation between antimicrobials and macrocycles would alter or prevent the ability of the complex to form aggregates. […] Indeed, the particle sizes observed when chlortetracycline is present was almost indistinguishable from particle formation by C12LE (4) alone.
Measurements were performed on a Brookhaven Instruments Corp. ZetaPALS instrument at 25 °C using a 660 nm laser and correlating scattering at 90°. Samples were prepared by initially dissolving the amphiphile in filtered DMSO obtained from ThermoFisher. Next, they were diluted into 1× PBS such that DMSO was fixed at 0.5% in 15 mL sterile conical tubes. 10× PBS was obtained commercially, then diluted 10-fold in MQ H2O. The mixture was vortexed and incubated at room temperature for 2 h, then transferred to a clean quartz cuvette and equilibrated in the instrument for 10 min at 25 °C. Ten measurements consisting of 2 min runs were made on each sample. The average effective diameter was calculated with standard error reported for at least three trials.

[9] = Turbidimetric solubility limit in MHII or PBS; assay type: physicochemical; details: DMSO ≤0.5%
[10] = system: K12 E. coli; assay: MIC against K12 E. coli; assay type: cell-based; details: Escherichia coli
[11] = Planar bilayer voltage clamp; details: 70 mV, KCl 450 mM, HEPES 10 mM, pH 7
Source text: This compound was therefore converted into its bis(methiodide) to form C11LE•2MeI (8). It is clear from the trace shown that only spiking behavior was observed and a large opening eventually emerged. […] The formation of a large opening in the membrane comports with the expectation of increased permeability. Such an opening is also in accord with the observation (see above) of depolarization of bacterial membranes.
Figure 18 Planar bilayer voltage clamp trace for C11LE•2MeI (8) at 70 mV. Axes: Y = millivolts and X axis = 10 s per section. Conditions: soybean asolectin membrane, KCl (450 mm) buffer solution (HEPES, 10 mm, pH 7).
The planar bilayer experiments were conducted as described previously.

[12] = system: Escherichia coli; details: administered with ½ MIC of C8LE; earlier work, no reference given; cited from earlier work
[13] = system: DH5α E. coli; set-up: method as in PMID 15858645; details: free bases, previously reported data; cited from earlier work
[14] = system: human embryonic kidney (HEK-293) cells; assay: Cytotoxicity against HEK-293 cells; assay type: cell-based; details: Homo sapiens, HEK293, percentage survival, three independent trials
Source text: (§1) The potential toxicity of 1–6 is a critical factor in their application either as an antimicrobial or an adjuvant. In vitro toxicity studies were therefore conducted using human embryonic kidney (HEK-293) and simian kidney (COS-7) cells. The graphs shown in Figure 20 show the percentage survival of each cell type as a function of lariat ether concentration on the logarithmic x-axis. In each graph, the IC50 value is specified for each compound and cell type. The value of IC50 is the concentration of lariat ether that inhibits the growth of 50% of the cells studied.
(§2) The cytotoxicity experiments were conducted as described in [44].

[15] = system: S. aureus (1199B); assay: Membrane permeability (propidium iodide / alamar blue); assay type: cell-based, Staphylococcus aureus; details: compound at ½ MIC
Method: Membrane permeability was assessed by using the dyes propidium iodide and alamar blue. […] However, when PI does enter a cell, it intercalates within the DNA structure. […] When intercalation occurs, a strong fluorescent emission can be detected. Alamar blue, based on resazurin, is a nontoxic weakly fluorescent dye that is sensitive to reduction potential within vital cells. When reduced, it is converted into highly fluorescent resorufin (7-hydroxy-3H-phenoxazin-3-one).
The combination of alamar blue and propidium iodide allowed us to assess the membrane permeability of S. aureus while confirming cellular vitality. Results of the PI/alamar blue studies with S. aureus are summarized in the graph of Figure 5. When S. aureus (1199B) was exposed to the two dyes, penetration of PI was relatively low and cellular vitality remained high. […] In general, cellular penetration and vitality correlated.
Membrane permeability studies were conducted as detailed in [48].

[16] = system: simian kidney (COS-7) cells; assay: Cytotoxicity against COS-7 cells; assay type: cell-based; details: Chlorocebus aethiops, COS-7, percentage survival, three independent trials
Source text: as §1, §2

[17] = MHII media, 90% growth inhibition
[18] = Staphylococcus aureus, pH 8.4, MHII, pH 8.4, read-out: MIC S. aureus, MHII pH 8.4
[19] = MHII media, 90% growth inhibition, read-out: MIC K12 E. coli

Compound: CCCCCCCCCCCCN1CCOCCOCCN(CCCCCCCCCCCC)CCOCCOCC1 [C12LE (4), N,N′-Di-n-dodecyl-4-13-diaza-18-crown-6]
- MIC [1]: > 64 µM
- MIC Tet^R E. coli [1, 17]: inactive
- Membrane depolarization (DiBAC4(3) fluorescence) [2]: failed to show any significant evidence of membrane depolarization
- Efflux pump inhibition (increase in EthBr fluorescence) ([3]; […] µM compound): most potent efflux pump inhibition
- MIC S. aureus 1199B [4, 17]: 32 µM (≈ 19.2 µg/mL)
- MIC ([5]; MHII, pH 6.4, read-out: MIC S. aureus, MHII pH 6.4): >16 µM
- MIC ([5]; MHII, pH 7.4, read-out: MIC S. aureus, MHII pH 7.4): >32 µM
- Change in MIC as the pH was increased from 6.4 to 8.4 [5]: changes in MIC were observed
- MIC [5, 18]: > 64 µM
- Effect on bacterial growth (growth curves) [6]: growth effects were observed at ½ MIC and lower
- melting point: 141 to 144 °C
- MIC [7]: > 128 µM
- Slope of C12LE aggregation (DLS particle size) [8]: 2.95
- solubility at 2 h ([9]; Mueller Hinton II, pH 7.3, 2 h at 37 °C, read-out: Solubility limit in MHII): 16 µM (≈ 9.58 µg/mL)
- solubility at 2 h ([9]; phosphate-buffered saline, 2 h at 37 °C, read-out: Solubility limit in PBS): 16 µM (≈ 9.58 µg/mL)
- MIC [10, 19]: > 128 µM

Compound: CCCCCCCCCCC[N+]1(C)CCOCCOCC[N+](C)(CCCCCCCCCCC)CCOCCOCC1 (centres unmarked) [C11LE•2MeI (8)]
- Channel formation in planar bilayer [11]: does not form stable channels

Compound: CCCCCCCCN1CCOCCOCCN(CCCCCCCC)CCOCCOCC1 [C8LE (7)]
- Fold increase in potency of rifampicin against E. coli [12]: 20 fold
- MIC [7]: 206 µM (≈ 100 µg/mL)
- Minimum inhibitory concentration against DH5α E. coli [13]: >128 µM
- MIC ([10]; read-out: MIC K12 E. coli, MHII media, 90% growth inhibition): 100 µM (≈ 48.7 µg/mL)

Compound: CCCCCCCCCC[N+]1(C)CCOCCOCC[N+](C)(CCCCCCCCCC)CCOCCOCC1 (centres unmarked) [C10LE•2MeI (3), N,N′-Di-n-decyl-4-13-diaza-18-crown-6 bis(methiodide)]
- MIC [1]: 32 µM
- IC50 [14]: 36 µM
- Membrane depolarization (DiBAC4(3) fluorescence) [2]: greatest
- Potency as efflux pump inhibitor relative to reserpine ([3]; 3 at […] µM vs reserpine at 50 µg/mL (80 µM)): approximately five times more potent
- MIC ([4]; Staphylococcus aureus, 1199B, read-out: MIC S. aureus 1199B, MHII media, 90% growth inhibition): 1 to 2 µM
- PI penetration (membrane permeability) [15]: good penetration
- Change in MIC as the pH was increased from 6.4 to 8.4 [5]: unchanged
- MIC ([5]; Staphylococcus aureus, MH + Ca2+, read-out: MIC S. aureus, MH + Ca^2+): 16 µM
- MIC ([5]; Staphylococcus aureus, MH medium, read-out: MIC S. aureus, MH): 2 µM
- MIC ([5]; Staphylococcus aureus, pH 6.4, MHII, pH 6.4, read-out: MIC S. aureus, MHII pH 6.4): 2 µM
- MIC ([5]; Staphylococcus aureus, pH 7.4, MHII, pH 7.4, read-out: MIC S. aureus, MHII pH 7.4): 2 µM
- MIC [5, 18]: 2 µM
- IC50 [16]: 53 µM
- MIC [7]: 24 µM
- solubility at 2 h ([9]; Mueller Hinton II broth, 37 °C, pH 7.3, plasma or biological fluid, kinetic from dmso stock, Mueller Hinton II, pH 7.3, 2 h at 37 °C, read-out: Solubility limit in MHII): 64 µM
- solubility at 2 h ([9]; phosphate-buffered saline, 37 °C, aqueous buffer, kinetic from dmso stock, phosphate-buffered saline, 2 h at 37 °C, read-out: Solubility limit in PBS): ≥ 128 µM
- MIC [10, 19]: 16 µM
